“And” between values parts separate entries of the source, which are not always exact repeats. Equal entries are not always repeated.
Assay: Peroxy radical scavenging activity (BODIPY 581/591 C11 fluorescence, AMVN radical generator, microplate); synergy by CalcuSyn median-effect method
Assay type: biochemical
Conditions: test material alone, 50 percent inhibition of peroxy radical formation, parenthetic values 95% confidence intervals
Method: As a peroxy radical generator, 2,2′-azobis-2,4-dimethyl valeronitrile (AMVN) was used and obtained from WAKO Chemicals (Richmond, Va.). All standards were of the highest purity commercially available. Additionally, the solvents were of HPLC grade.
Fluorescence measurements were performed using a Packard FluoroCount microplate fluorometer equipped with a temperature-controlled plate holder. All measurements were preformed in a 96-well polypropylene plate with stirring.
Reactions in octane:butyronitrile (9:1, v/v) were carried out at 30° C. All fluorescence measurements were recorded every 15 minutes for 1 hour at excitation wavelengths of 570 nm, with emission at 620 nm. The net protection (area under the curve, AUC) provided by an antioxidant sample was calculated using the trapezoid method. […] The percent inhibition of each dose was calculated as:
[AUC(dose)−AUC(AMVN)]/[AUC(BODIPY)−AUC(AMVN)]×100.
Stock solutions of the test samples were made up in chloroform and 6 μL were added to the reaction mixture to achieve the stated concentrations. The reaction was initiated by the addition of the AMVN and fluorometric readings were recorded every 15 minutes for one hour.
Synergy between astaxanthin and the sample of mixed tocotrienols was assessed using CalcuSyn (BIOSOFT, biosoft.com).
Cm is determined from the x-intercept of the median-effect plot. The fraction affected by the concentration of the test material is fa and the fraction unaffected by the concentration is fu (fu=1−fa). The exponent m is the parameter signifying the sigmoidicity or shape of the dose-effect curve. It is estimated by the slope of the median-effect plot.
The median-effect plot is a plot of x=log(C) vs y=log(fa/fu) and is based on the logarithmic form of Chou's median-effect equation. The goodness of fit for the data to the median-effect equation is represented by the linear correlation coefficient r of the median-effect plot. Usually, the experimental data from enzyme or receptor systems have an r>0.96, from tissue culture an r>0.90 and from animal systems an r>0.85.
Synergy of test components is quantified using the combination index (CI) parameter. […] The equation determines only the additive effect rather than synergism or antagonism.
Dose-response curves were described with each test article separately and then in a two-way combination.

SMILES	IC50	IC50 (listed as astaxanthin)
CC1=C(/C=C/C(C)=C/C=C/C(C)=C/C=C/C=C(C)/C=C/C=C(C)/C=C/C2=C(C)CCCC2(C)C)C(C)(C)CCC1 [β-Carotene, β-carotene]	196 (171-226) μg/mL and 135 (85-215) μg/mL	–
CC1=C[C@H](O)CC(C)(C)[C@H]1/C=C/C(C)=C/C=C/C(C)=C/C=C/C=C(C)/C=C/C=C(C)/C=C/C1=C(C)C[C@@H](O)CC1(C)C [Lutein, lutein]	38 (29-50) μg/mL	–
CC1=C(/C=C/C(C)=C/C=C/C(C)=C/C=C/C=C(C)/C=C/C=C(C)/C=C/C2=C(C)C(=O)[C@@H](O)CC2(C)C)C(C)(C)C[C@H](O)C1=O [Astaxanthin, 3,3′-dihydroxy-β,β-carotene-4,4′-dieto-β-carotene]	150 (115-194) μg/mL and 182 (145-227) μg/mL	196 µg/mL and 195 µg/mL

From patent US20030206972A1, “Compositions containing carotenoids and tocotrienols and having synergistic antioxidant effect” (priority 2000, published 2003)
